Results reported in patent publication US20110166121A1 (LG LIFE SCIENCES LTD., priority 2008, published 2011).
pIC50, pKi: −log10 of the molar value.

Key:
Human P2Y12 receptor = target: T1, Human P2Y12 receptor (Homo sapiens, UniProt Q9H244); assay: Human P2Y12 receptor cell membrane binding assay with [3H] 2-Mes-ADP; settings: 1 nM [3H] 2-Mes-ADP, membranes of HEK cells expressing P2Y12 receptor; read-out: Binding activity (IC50)
T1 construct: expressed in transfected cells; host or cells: HEK cells
Method in brief: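 Membranes from HEK cells expressing human P2Y12 were incubated with compound and 1 nM [3H]2-MeS-ADP for 1 h at room temperature. Bound radioactivity was collected by GF/B filtration.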

[1] = tested on: Human platelet aggregation caused by ADP; assay: Inhibition of ADP-induced platelet aggregation (Mimic-human PRP); format: cell-based; settings: 20 μM ADP; for pKi: human platelet concentrate diluted with PPP, absorption at 595 nm
Method in brief: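 Human PRP diluted with PPP to 3–4×10^8 platelets/mL was preincubated 20 min at room temperature with compound (0.01–30 μM, DMSO), then stimulated with 20 μM ADP. Aggregation read as A595 increase at 3 min versus 0 and 20 μM ADP controls; Ki from sigmoidal non-linear regression.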

T1 sequence (Q9H244 whole entry): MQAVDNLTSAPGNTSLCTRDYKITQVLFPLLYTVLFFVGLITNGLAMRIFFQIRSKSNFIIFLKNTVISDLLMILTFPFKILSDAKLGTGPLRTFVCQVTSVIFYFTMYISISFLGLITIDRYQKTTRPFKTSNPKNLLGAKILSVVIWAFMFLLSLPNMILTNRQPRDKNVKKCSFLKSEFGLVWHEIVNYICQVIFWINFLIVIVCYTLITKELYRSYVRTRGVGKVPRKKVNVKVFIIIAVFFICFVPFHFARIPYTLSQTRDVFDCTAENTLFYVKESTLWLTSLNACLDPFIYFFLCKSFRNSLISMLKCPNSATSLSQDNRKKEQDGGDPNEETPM

Row | SMILES | pIC50 (Human P2Y12 receptor) | pKi [1] | inhibition at 40 µM ([1]; Homo sapiens, Platelet, 40 μM compound) [%]
1 | CCCc1cc2c(N3CCn4c(nnc4C(F)(F)F)C3)nc(Cc3nc(C(=O)OCC)cs3)nc2s1 [Example 4-57, 2-[6-Propyl-4-(3-trifluoromethyl-5,6-dihydro-8H-[1,2,4]triazolo[4,3-a]pyrazin-7-yl)-thieno[2,3-d]pyrimidin-2-ylmethyl]-thiazole-4-carboxylic acid ethyl ester] | 6.62 | 6.55 | 
2 | CCCc1cc2c(N3CCn4c(nnc4C(F)(F)F)C3)nc(Cc3nc(C(=O)O)cs3)nc2s1 [Example 4-58, 2-[6-Propyl-4-(3-trifluoromethyl-5,6-dihydro-8H-[1,2,4]triazolo[4,3-a]pyrazin-7-yl)-thieno[2,3-d]pyrimidin-2-ylmethyl]-thiazole-4-carboxylic acid] | 6.52 | 6.61 | 
3 | CCCc1cc2c(N3CCn4c(nnc4C(F)(F)F)C3)nc(-c3nc(CCO)cs3)nc2s1 [Example 4-59, 2-{2-[6-Propyl-4-(3-trifluoromethyl-5,6-dihydro-8H-[1,2,4]triazolo[4,3-a]pyrazin-7-yl)-thieno[2,3-d]pyrimidin-2-yl]-thiazol-4-yl}-ethanol] | 7.40 | 8.08 | 
4 | CCCc1nc2c(N3CCn4c(nnc4C(F)(F)F)C3)nc(N3CCNC(=O)C3)nc2s1 [Example 5-4, 4-[2-Propyl-7-(3-trifluoromethyl-5,6-dihydro-8H-[1,2,4]triazolo[4,3-a]pyrazin-7-yl)-thiazolo[5,4-d]pyrimidin-5-yl]-piperazin-2-one] | 7.14 | 7.24 | 
5 | CCCc1nc2c(N3CCn4c(nnc4C(F)(F)F)C3)nc(N3CC[C@H](N)C3)nc2s1 [Example 5-5, (S)-1-[2-Propyl-7-(3-trifluoromethyl-5,6-dihydro-8H-[1,2,4]triazolo[4,3-a]pyrazin-7-yl)-thiazolo[5,4-d]pyrimidin-5-yl]-pyrrolidin-3-ylamine] | 6.77 | 7.60 | 
6 | CCCc1nc2c(N3CCn4c(nnc4C(F)(F)F)C3)nc(N3CCC[C@H](C(=O)OCC)C3)nc2s1 [Example 5-6, (S)-1-[2-Propyl-7-(3-trifluoromethyl-5,6-dihydro-8H-[1,2,4]triazolo[4,3-a]pyrazin-7-yl)-thiazolo[5,4-d]pyrimidin-5-yl]-piperidine-3-carboxylic acid ethyl ester] | 6.20 | < 5.40 | 
7 | CCCc1nc2c(N3CCn4c(nnc4C(F)(F)F)C3)nc(N3CCC[C@H](C(=O)O)C3)nc2s1 [Example 5-7, (S)-1-[2-Propyl-7-(3-trifluoromethyl-5,6-dihydro-8H-[1,2,4]triazolo[4,3-a]pyrazin-7-yl)-thiazolo[5,4-d]pyrimidin-5-yl]-piperidine-3-carboxylic acid] | 7.49 | 7.42 | 
8 | CCc1cc2c(N3CCn4c(nnc4C(F)(F)C(F)(F)F)C3)nc(OCC(O)CO)nc2s1 (stereo not drawn) [Example 6-3, 3-[6-Ethyl-4-(3-pentafluoroethyl-5,6-dihydro-8H-[1,2,4]triazolo[4,3-a]pyrazin-7-yl)-thieno[2,3-d]pyrimidin-2-yloxy]-propane-1,2-diol] | 6.21 | 6.40 | 
9 | CCCc1cc2c(N3CCn4c(nnc4C(F)(F)C(F)(F)F)C3)nc(N3CCNC(=O)C3)nc2s1 [Example 6-4, 4-[4-(3-Pentafluoroethyl-5,6-dihydro-8H-[1,2,4]triazolo[4,3-a]pyrazin-7-yl)-6-propyl-thieno[2,3-d]pyrimidin-2-yl]-piperazin-2-one] | 6.89 | 6.51 | 
10 | CCCc1cc2c(N3CCn4c(nnc4C(F)(F)C(F)(F)F)C3)nc(N3CCNCC3)nc2s1 [Example 6-5, 3-Pentafluoroethyl-7-(2-piperazin-1-yl-6-propyl-thieno[2,3-d]pyrimidin-4-yl)-5,6,7,8-tetrahydro-[1,2,4]triazolo[4,3-a]pyrazine] | 6.58 | 6.03 | 
11 | CCCc1cc2c(N3CCn4c(nnc4C(F)(F)C(F)(F)F)C3)nc(N3CCN(C)CC3)nc2s1 [Example 6-6, 7-[2-(4-Methyl-piperazin-1-yl)-6-propyl-thieno[2,3-d]pyrimidin-4-yl]-3-pentafluoroethyl-5,6,7,8-tetrahydro-[1,2,4]triazolo[4,3-a]pyrazine] | 6.50 |  | 49
12 | CCCc1cc2c(N3CCn4c(nnc4C(F)(F)C(F)(F)F)C3)nc(NCCO)nc2s1 [Example 6-7, 2-[4-(3-Pentafluoroethyl-5,6-dihydro-8H-[1,2,4]triazolo[4,3-a]pyrazin-7-yl)-6-propyl-thieno[2,3-d]pyrimidin-2-ylamino]-ethanol] | 6.31 | 6.39 | 
13 | CCCc1cc2c(N3CCn4c(nnc4C(F)(F)C(F)(F)F)C3)nc(OCC(O)CO)nc2s1 (stereo not drawn) [Example 6-8, 3-[4-(3-Pentafluoroethyl-5,6-dihydro-8H-[1,2,4]triazolo[4,3-a]pyrazin-7-yl)-6-propyl-thieno[2,3-d]pyrimidin-2-yloxy]-propane-1,2-diol] | 6.89 | 7.02 | 
14 | CCCc1cc2c(N3CCn4c(nnc4C(F)(F)C(F)(F)F)C3)nc(OCCO)nc2s1 [Example 6-9, 2-[4-(3-Pentafluoroethyl-5,6-dihydro-8H-[1,2,4]triazolo[4,3-a]pyrazin-7-yl)-6-propyl-thieno[2,3-d]pyrimidin-2-yloxy]-ethanol] | 6.92 | 7.52 | 
15 | CCc1cc2c(N3CCn4c(C)nnc4C3)nc(N3CCNC(=O)C3)nc2s1 [Example 6-12, 4-[6-Ethyl-4-(3-methyl-5,6-dihydro-8H-[1,2,4]triazolo[4,3-a]pyrazin-7-yl)-thieno[2,3-d]pyrimidin-2-yl]-piperazin-2-one] | 6.12 | 6.09 | 
16 | CCc1cc2c(N3CCn4c(C)nnc4C3)nc(OCC(O)CO)nc2s1 (stereo not drawn) [Example 6-13, 3-[6-Ethyl-4-(3-methyl-5,6-dihydro-8H-[1,2,4]triazolo[4,3-a]pyrazin-7-yl)-thieno[2,3-d]pyrimidin-2-yloxy]-propane-1,2-diol] | 5.61 | 6.15 | 
17 | CCCc1cc2c(N3CCn4c(C)nnc4C3)nc(N3CCNC(=O)C3)nc2s1 [Example 6-14, 4-[4-(3-Methyl-5,6-dihydro-8H-[1,2,4]triazolo[4,3-a]pyrazin-7-yl)-6-propyl-thieno[2,3-d]pyrimidin-2-yl]-piperazin-2-one] | 6.49 | 6.59 | 
18 | CCCc1cc2c(N3CCn4c(C)nnc4C3)nc(OCC(O)CO)nc2s1 (stereo not drawn) [Example 6-15, 3-[4-(3-Methyl-5,6-dihydro-8H-[1,2,4]triazolo[4,3-a]pyrazin-7-yl)-6-propyl-thieno[2,3-d]pyrimidin-2-yloxy]-propane-1,2-diol] | 6.40 | 6.72 | 
19 | CCCc1cc2c(N3CCn4c(C)nnc4C3)nc(OCCO)nc2s1 [Example 6-16, 2-[4-(3-Methyl-5,6-dihydro-8H-[1,2,4]triazolo[4,3-a]pyrazin-7-yl)-6-propyl-thieno[2,3-d]pyrimidin-2-yloxy]-ethanol] | 6.51 | 7.21 | 
20 | CCCc1cc2c(N3CCn4c(C)nnc4C3)nc(OCCCO)nc2s1 [Example 6-17, 3-[4-(3-Methyl-5,6-dihydro-8H-[1,2,4]triazolo[4,3-a]pyrazin-7-yl)-6-propyl-thieno[2,3-d]pyrimidin-2-yloxy]-propan-1-ol] | 6.12 | 6.40 | 
21 | CCCc1cc2c(N3CCn4c(C)nnc4C3)nc(OCC(CO)CO)nc2s1 [Example 6-18, 2-[4-(3-Methyl-5,6-dihydro-8H-[1,2,4]triazolo[4,3-a]pyrazin-7-yl)-6-propyl-thieno[2,3-d]pyrimidin-2-yloxymethyl]-propane-1,3-diol] | 6.17 | 6.52 | 
